From ChEMBL document CHEMBL4828726, “Modification of 5-methylphenanthridium from benzothiazoles to indoles as potent FtsZ inhibitors: Broadening the antibacterial spectrum toward vancomycin-resistant enterococci” (Eur J Med Chem, 2021)
Converted amounts (≈) assume the structure as drawn.

How the values were obtained:
Format in all cases: functional
Staphylococcus aureus [1] = experiment: Bactericidal activity against penicillin-resistant Staphylococcus aureus ATCC 31007 assessed as inhibition of bacterial growth measured after 20 hrs by two-fold microdilution assay
Staphylococcus aureus [2] = experiment: Antibacterial activity against clinical isolate Staphylococcus aureus C1 assessed as inhibition of bacterial growth measured after 20 hrs by two-fold microdilution assay
Bacillus subtilis [3] = experiment: Bactericidal activity against penicillin-susceptible Bacillus subtilis ATCC 9372 assessed as inhibition of bacterial growth measured after 20 hrs by two-fold microdilution assay
[4] = test system: Staphylococcus epidermidis; experiment: Antibacterial activity against penicillin-resistant Staphylococcus epidermidis assessed as inhibition of bacterial growth measured after 20 hrs by two-fold microdilution assay
Staphylococcus aureus [5] = experiment: Bactericidal activity against erythromycin-susceptible Staphylococcus aureus ATCC 25923 assessed as inhibition of bacterial growth measured after 20 hrs by two-fold microdilution assay
Streptococcus pyogenes [6] = experiment: Antibacterial activity against erythromycin-susceptible Streptococcus pyogenes assessed as inhibition of bacterial growth measured after 20 hrs by two-fold microdilution assay
Enterococcus faecalis [7] = experiment: Antibacterial activity against Vancomycin-susceptible Enterococcus faecalis ATCC 29212 assessed as inhibition of bacterial growth measured after 20 hrs by two-fold microdilution assay
Staphylococcus aureus [8] = experiment: Ratio of MBC to MIC against erythromycin-susceptible Staphylococcus aureus ATCC 25923
Staphylococcus aureus [9] = experiment: Antibacterial activity against penicillin-resistant Staphylococcus aureus ATCC 31007 assessed as inhibition of bacterial growth measured after 20 hrs by two-fold microdilution assay
Enterococcus faecium [10] = experiment: Antibacterial activity against Vancomycin-susceptible Enterococcus faecium ATCC 19434 assessed as inhibition of bacterial growth measured after 20 hrs by two-fold microdilution assay
Staphylococcus aureus [11] = experiment: Ratio of MBC to MIC against methicilline-resistant Staphylococcus aureus ATCC43300
Pseudomonas aeruginosa = experiment: Antibacterial activity against penicillin-susceptible Pseudomonas aeruginosa ATCC 27853 assessed as inhibition of bacterial growth measured after 20 hrs by two-fold microdilution assay
Escherichia coli = experiment: Antibacterial activity against penicillin-susceptible Escherichia coli ATCC 25922 assessed as inhibition of bacterial growth measured after 20 hrs by two-fold microdilution assay
Enterococcus faecium [12] = experiment: Antibacterial activity against Vancomycin-resistant Enterococcus faecium ATCC 51559 assessed as inhibition of bacterial growth measured after 20 hrs by two-fold microdilution assay
Staphylococcus aureus [13] = experiment: Bactericidal activity against methicillin-resistant Staphylococcus aureus ATCC43300 assessed as inhibition of bacterial growth measured after 20 hrs by two-fold microdilution assay
Bacillus subtilis [14] = experiment: Ratio of MBC to MIC against penicillin-susceptible Bacillus subtilis ATCC 9372
Bacillus subtilis [15] = experiment: Antibacterial activity against penicillin-susceptible Bacillus subtilis ATCC 9372 assessed as inhibition of bacterial growth measured after 20 hrs by two-fold microdilution assay
Streptococcus pyogenes [16] = experiment: Antibacterial activity against erythromycin-resistant Streptococcus pyogenes assessed as inhibition of bacterial growth measured after 20 hrs by two-fold microdilution assay
Bacillus pumilus [17] = experiment: Bactericidal activity against penicillin-susceptible Bacillus pumilus CMCC63202 assessed as inhibition of bacterial growth measured after 20 hrs by two-fold microdilution assay
Bacillus pumilus [18] = experiment: Antibacterial activity against penicillin-susceptible Bacillus pumilus CMCC63202 assessed as inhibition of bacterial growth measured after 20 hrs by two-fold microdilution assay
Staphylococcus aureus [19] = experiment: Antibacterial activity against methicillin-resistant Staphylococcus aureus ATCC43300 assessed as inhibition of bacterial growth measured after 20 hrs by two-fold microdilution assay
Bacillus pumilus [20] = experiment: Ratio of MBC to MIC against penicillin-susceptible Bacillus pumilus CMCC63202
Staphylococcus aureus [21] = experiment: Antibacterial activity against erythromycin-susceptible Staphylococcus aureus ATCC 25923 assessed as inhibition of bacterial growth measured after 20 hrs by two-fold microdilution assay
Enterococcus faecalis [22] = experiment: Antibacterial activity against Vancomycin-resistant Enterococcus faecalis ATCC 51299 assessed as inhibition of bacterial growth measured after 20 hrs by two-fold microdilution assay
Enterococcus faecalis [23] = experiment: Bactericidal activity against Vancomycin-susceptible Enterococcus faecalis ATCC 29212 assessed as inhibition of bacterial growth measured after 20 hrs by two-fold microdilution assay
Enterococcus faecium [24] = experiment: Bactericidal activity against Vancomycin-susceptible Enterococcus faecium ATCC 19434 assessed as inhibition of bacterial growth measured after 20 hrs by two-fold microdilution assay
Enterococcus faecalis [25] = experiment: Bactericidal activity against Vancomycin-resistant Enterococcus faecalis ATCC 51299 assessed as inhibition of bacterial growth measured after 20 hrs by two-fold microdilution assay
Enterococcus faecium [26] = experiment: Bactericidal activity against Vancomycin-resistant Enterococcus faecium ATCC 51559 assessed as inhibition of bacterial growth measured after 20 hrs by two-fold microdilution assay

Cc1ccc2c[n+](C)c3ccc(-c4ccc5ccn(Cc6ccccc6)c5c4)cc3c2c1.[Cl-]
MBC (Staphylococcus aureus [1]): 64 µg/mL
MIC (Staphylococcus aureus [2]): 2 µg/mL
MBC (Bacillus subtilis [3]): 4 µg/mL
MIC [4]: 8 µg/mL
MBC (Staphylococcus aureus [5]): 32 µg/mL
MIC (Streptococcus pyogenes [6]): 4 µg/mL
MIC (Enterococcus faecalis [7]): 8 µg/mL
Ratio (Staphylococcus aureus [8]): 16
MIC (Staphylococcus aureus [9]): 4 µg/mL
MIC (Enterococcus faecium [10]): 4 µg/mL
Ratio (Staphylococcus aureus [11]): 4
MIC (Pseudomonas aeruginosa): > 64 µg/mL
MIC (Escherichia coli): > 64 µg/mL
MIC (Enterococcus faecium [12]): 4 µg/mL
MBC (Staphylococcus aureus [13]): 16 µg/mL
Ratio (Bacillus subtilis [14]): 2
MIC (Bacillus subtilis [15]): 2 µg/mL
MIC (Streptococcus pyogenes [16]): 4 µg/mL
MBC (Bacillus pumilus [17]): 64 µg/mL
MIC (Bacillus pumilus [18]): 4 µg/mL
MIC (Staphylococcus aureus [19]): 4 µg/mL
Ratio (Bacillus pumilus [20]): 16
MIC (Staphylococcus aureus [21]): 2 µg/mL
MIC (Enterococcus faecalis [22]): 16 µg/mL

COc1ccc2cc3[n+](cc2c1OC)CCc1cc2c(cc1-3)OCO2 [BERBERINE]
MIC (Staphylococcus aureus [2]): > 64 µg/mL
MIC [4]: > 64 µg/mL
MIC (Streptococcus pyogenes [6]): 64 µg/mL
MIC (Enterococcus faecalis [7]): > 64 µg/mL
MIC (Staphylococcus aureus [9]): > 64 µg/mL
MIC (Enterococcus faecium [10]): > 64 µg/mL
MIC (Pseudomonas aeruginosa): > 64 µg/mL
MIC (Escherichia coli): > 64 µg/mL
MIC (Enterococcus faecium [12]): > 64 µg/mL
MIC (Bacillus subtilis [15]): > 64 µg/mL
MIC (Streptococcus pyogenes [16]): 64 µg/mL
MIC (Bacillus pumilus [18]): > 64 µg/mL
MIC (Staphylococcus aureus [19]): > 64 µg/mL
MIC (Staphylococcus aureus [21]): 64 µg/mL
MIC (Enterococcus faecalis [22]): > 64 µg/mL

CN[C@H](CC(C)C)C(=O)N[C@H]1C(=O)N[C@@H](CC(N)=O)C(=O)N[C@H]2C(=O)N[C@H]3C(=O)N[C@H](C(=O)N[C@H](C(=O)O)c4cc(O)cc(O)c4-c4cc3ccc4O)[C@H](O)c3ccc(c(Cl)c3)Oc3cc2cc(c3O[C@@H]2O[C@H](CO)[C@@H](O)[C@H](O)[C@H]2O[C@H]2C[C@](C)(N)[C@H](O)[C@H](C)O2)Oc2ccc(cc2Cl)[C@H]1O [VANCOMYCIN]
MIC (Enterococcus faecalis [7]): 2 µg/mL (≈ 1.38 µM)
MIC (Enterococcus faecium [12]): > 64 µg/mL
MIC (Enterococcus faecalis [22]): > 64 µg/mL

Cc1cccc2c[n+](C)c3ccc(-c4nc5ccccc5s4)cc3c12.[Cl-]
MIC (Staphylococcus aureus [2]): 4 µg/mL
MBC (Bacillus subtilis [3]): > 64 µg/mL
MIC [4]: 4 µg/mL
MBC (Staphylococcus aureus [5]): > 64 µg/mL
MIC (Streptococcus pyogenes [6]): 4 µg/mL
MIC (Enterococcus faecalis [7]): 1 µg/mL
MIC (Staphylococcus aureus [9]): 4 µg/mL
MIC (Enterococcus faecium [10]): 8 µg/mL
MIC (Pseudomonas aeruginosa): > 64 µg/mL
MIC (Escherichia coli): > 64 µg/mL
MIC (Enterococcus faecium [12]): 16 µg/mL
MIC (Bacillus subtilis [15]): 4 µg/mL
MIC (Streptococcus pyogenes [16]): 4 µg/mL
MIC (Bacillus pumilus [18]): 4 µg/mL
MIC (Staphylococcus aureus [19]): 4 µg/mL
MIC (Staphylococcus aureus [21]): 2 µg/mL
MIC (Enterococcus faecalis [22]): 16 µg/mL

C[n+]1cc2c3c(ccc2c2ccc4cc5c(cc4c21)OCO5)OCO3 [SANGUINARIUM]
MBC (Staphylococcus aureus [1]): > 64 µg/mL
MIC (Staphylococcus aureus [2]): 4 µg/mL
MBC (Enterococcus faecalis [23]): > 64 µg/mL
MBC (Bacillus subtilis [3]): > 128 µg/mL
MIC [4]: 8 µg/mL
MBC (Staphylococcus aureus [5]): 128 µg/mL
MIC (Streptococcus pyogenes [6]): 2 µg/mL
MIC (Enterococcus faecalis [7]): 16 µg/mL
Ratio (Staphylococcus aureus [8]): 32
MIC (Staphylococcus aureus [9]): 16 µg/mL
MIC (Enterococcus faecium [10]): 64 µg/mL
Ratio (Staphylococcus aureus [11]): 16
MIC (Pseudomonas aeruginosa): > 64 µg/mL
MBC (Enterococcus faecium [24]): > 64 µg/mL
MIC (Escherichia coli): 32 µg/mL
MIC (Enterococcus faecium [12]): 32 µg/mL
MBC (Staphylococcus aureus [13]): 128 µg/mL
MBC (Enterococcus faecalis [25]): > 64 µg/mL
MIC (Bacillus subtilis [15]): 2 µg/mL
MBC (Enterococcus faecium [26]): > 64 µg/mL
MIC (Streptococcus pyogenes [16]): 2 µg/mL
MBC (Bacillus pumilus [17]): 32 µg/mL
MIC (Bacillus pumilus [18]): 4 µg/mL
MIC (Staphylococcus aureus [19]): 8 µg/mL
Ratio (Bacillus pumilus [20]): 8
MIC (Staphylococcus aureus [21]): 4 µg/mL
MIC (Enterococcus faecalis [22]): 32 µg/mL
